Results: US20230218573A1, “INDOLE COMPOUNDS FOR THE TREATMENT OF NEURODEGENERATIVE DISEASES” (GALYAN BIO, INC., priority 2020, published 2023)
Where two headings read alike, the source gives them in different places.

Key:
[1] = tested on: STHdh 111/111 striatal cells; assay: Cell viability (CellTiter Glo) of heat shocked STHdh 111/111 striatal cells; type: cell-based, mouse; settings: STHdh 111/111, 10 µM, 48 hours treatment; for viability at 10 µM: Mus musculus, read-out: Cell Viability striatal cells 3h heat shocked
Procedure: Cell culture - ST HDH Q111/111 (CH00095, Coriell Institute) striatal derived cell line were grown at 33° C. in DMEM (Sigma-Aldrich), supplemented with 10% fetal bovine serum (FBS), 1% Penicillin-Streptomycin (ThermoFisher Scientific), and 0.4 mg/ml G418 (Geneticin; Invitrogen). ST HDH Q111/111 are mouse striatal cells with polyQ length of 1111.
Pre-Treatment of striatal cell line - First the medium was removed and new DMEM (DMEM, high glucose, HEPES, no phenol red) medium, supplemented with 10% fetal bovine serum (FBS), 1% Penicillin-Streptomycin, containing 10 µM compound was added. The cells were incubated at 33° C. for 24 hours.
Heat shock - Cells were heat shocked for 3 hours at 41° C.
Treatment - Medium was removed and new DMEM (DMEM, high glucose, HEPES, no phenol red) medium, supplemented with 1% fetal bovine serum (FBS), 1% Penicillin-Streptomycin, containing 10 µM compound was added. The cells were incubated at 33° C. for 48 hours.
Cell Viability - Cell viability was measured according to manufacturer recommendations with CellTiter Glo (Promega). 96-well plates for used either for cell viability determination or cell staining.

mHTT = mHTT (Mus musculus, UniProt P42859, DEL28-30/G47A/INS49LLPQPQPP/INS60VA/L56P/P40L); assay: Diffuse mHTT levels in heat shocked STHdh 111/111 striatal cells by immunocytochemistry; settings: for remaining activity at 10 µM: 48 h
STHdh 7/7 striatal cells = assay: Cell viability of heat shocked STHdh 7/7 striatal cells; type: cell-based, mouse; settings: 48 hours treatment; for Cell Viability striatal cells 3h heat shocked: 10 µM; for viability at 10 µM: Mus musculus, read-out: Cell Viability striatal cells 3h heat shocked
Procedure: RESULTS - Table 7b summarizes the effect of the compounds on cell viability. STHdh 7/7 were heat shocked for 3 hours and treated for 48 hours with small molecule compounds. Table 2 lists the cell viability in striatal cells after 48 hours.
Effect of Compound 22 on Cell Viability of Wildtype Striatal Neurons - STHdh 7/7 cells are striatal cells that express wildtype huntingtin. These cells were cultured in the same conditions as described above for STHdh 111/111. The neurons were first heat shocked for 3 hours at 41° C. as described above. After 48 hours of treatment with the small molecule Compounds, cell viability was determined using the method described above. The “buffer” control is represents cells treated with a buffer only, without any compounds added. Some of the compounds show higher cell viability in comparison to control heat shocked STHdh 7/7 neurons with buffer and no treatment (FIG. 9).

zebrafish larvae = assay: Zebrafish MPP+ motility model, photomotor assay; type: in vivo; settings: MPP+ alone, 500 µM
Procedure: MPP+ selectively targets dopaminergic neurons; the putative mechanism is induction of K+ efflux, cell membrane hyperpolarization and inhibition of neuronal firing. This ultimately leads to an inhibition of complex I, a decrease in ATP production and promotion of the generation of reactive oxygen species upon accumulation in the mitochondria (3). The observed phenotype following exposure to 500 µM from 24 hours post fertilization (hpf) to 120 hpf is characterized by a decrease in movement during lights-on phases of a photomotor assay. In unpublished data below, representative locomotor perturbations of the distance moved and movement frequency is shown.
Six groups were included in each experiment. Immediately after spawning, 40 embryos per group were allocated to a 24-well plate and system water (solvent) was added to all wells. For assessment of neuroprotective potential, Compound 4 was added for a final concentration of 1, 10 and 20 µM (column 4-6). From the following day at 24 hpf, Compound 4 was co-incubated with 500 µM MPP+. MPP+ was prepared immediately prior to incubation and solutions were changed daily. At 120 hpf, drug treatment and MPP+ exposure was ceased and a 3X wash was performed with system water. Larvae were then relocated to 96-well plates for behavioral recording and placed in a separate recording room for 24-hour acclimation. Prior to behavioral recording, wells were fully replenished system water.
Naive group was exposed to solvent only. Vehicle group was exposed to solvent and vehicle corresponding to the vehicle of 20 µM drug solution (0.02% DMSO). MPP+ positive control was exposed to solvent and 500 µM MPP+. All compound groups were treated with the respective vehicle and respective concentration of compound 4.
Behavioral data was recorded from 1 p.m. on 6 dpf until shortly after wakening on 7 dpf. The recording consisted of a photomotor assay in which lights switch off and on in 30-minute intervals between 1 p.m. and 6 p.m., producing a consistent photomotor response. […] Upon lights being turned on again, the larvae cease movement followed by a return to baseline. This cycle is repeated five times. Following the last lights-off phase, constant illumination is presented until lights turn off at 10 p.m. for the night. Lights turn on again at 8 a.m. the following day.
Average movement frequency was measured during 30-minute lights-on phases of photomotor assay. Movement bouts were defined as initiated when velocity exceeded a threshold of 2 mm/s and ceased when velocity fell below 1 mm/s.
Distance moved (mm) was defined as the average distance moved during 30-minute lights-on phases of photomotor assay.
Data was obtained using EthoVision XT (Version 11.5.2016, Noldus) and exported to Microsoft Excel for data analysis. […]

[2] = read-out: mHTT after treatment, 10 µM, 3 h heat shock, 48 hours treatment, in comparison to untreated STHdh 111/111

Chain of mHTT (P42859 with tags, fused parts or gaps DEL28-30/P40L/G47A/INS49LLPQPQPP/L56P/INS60VA): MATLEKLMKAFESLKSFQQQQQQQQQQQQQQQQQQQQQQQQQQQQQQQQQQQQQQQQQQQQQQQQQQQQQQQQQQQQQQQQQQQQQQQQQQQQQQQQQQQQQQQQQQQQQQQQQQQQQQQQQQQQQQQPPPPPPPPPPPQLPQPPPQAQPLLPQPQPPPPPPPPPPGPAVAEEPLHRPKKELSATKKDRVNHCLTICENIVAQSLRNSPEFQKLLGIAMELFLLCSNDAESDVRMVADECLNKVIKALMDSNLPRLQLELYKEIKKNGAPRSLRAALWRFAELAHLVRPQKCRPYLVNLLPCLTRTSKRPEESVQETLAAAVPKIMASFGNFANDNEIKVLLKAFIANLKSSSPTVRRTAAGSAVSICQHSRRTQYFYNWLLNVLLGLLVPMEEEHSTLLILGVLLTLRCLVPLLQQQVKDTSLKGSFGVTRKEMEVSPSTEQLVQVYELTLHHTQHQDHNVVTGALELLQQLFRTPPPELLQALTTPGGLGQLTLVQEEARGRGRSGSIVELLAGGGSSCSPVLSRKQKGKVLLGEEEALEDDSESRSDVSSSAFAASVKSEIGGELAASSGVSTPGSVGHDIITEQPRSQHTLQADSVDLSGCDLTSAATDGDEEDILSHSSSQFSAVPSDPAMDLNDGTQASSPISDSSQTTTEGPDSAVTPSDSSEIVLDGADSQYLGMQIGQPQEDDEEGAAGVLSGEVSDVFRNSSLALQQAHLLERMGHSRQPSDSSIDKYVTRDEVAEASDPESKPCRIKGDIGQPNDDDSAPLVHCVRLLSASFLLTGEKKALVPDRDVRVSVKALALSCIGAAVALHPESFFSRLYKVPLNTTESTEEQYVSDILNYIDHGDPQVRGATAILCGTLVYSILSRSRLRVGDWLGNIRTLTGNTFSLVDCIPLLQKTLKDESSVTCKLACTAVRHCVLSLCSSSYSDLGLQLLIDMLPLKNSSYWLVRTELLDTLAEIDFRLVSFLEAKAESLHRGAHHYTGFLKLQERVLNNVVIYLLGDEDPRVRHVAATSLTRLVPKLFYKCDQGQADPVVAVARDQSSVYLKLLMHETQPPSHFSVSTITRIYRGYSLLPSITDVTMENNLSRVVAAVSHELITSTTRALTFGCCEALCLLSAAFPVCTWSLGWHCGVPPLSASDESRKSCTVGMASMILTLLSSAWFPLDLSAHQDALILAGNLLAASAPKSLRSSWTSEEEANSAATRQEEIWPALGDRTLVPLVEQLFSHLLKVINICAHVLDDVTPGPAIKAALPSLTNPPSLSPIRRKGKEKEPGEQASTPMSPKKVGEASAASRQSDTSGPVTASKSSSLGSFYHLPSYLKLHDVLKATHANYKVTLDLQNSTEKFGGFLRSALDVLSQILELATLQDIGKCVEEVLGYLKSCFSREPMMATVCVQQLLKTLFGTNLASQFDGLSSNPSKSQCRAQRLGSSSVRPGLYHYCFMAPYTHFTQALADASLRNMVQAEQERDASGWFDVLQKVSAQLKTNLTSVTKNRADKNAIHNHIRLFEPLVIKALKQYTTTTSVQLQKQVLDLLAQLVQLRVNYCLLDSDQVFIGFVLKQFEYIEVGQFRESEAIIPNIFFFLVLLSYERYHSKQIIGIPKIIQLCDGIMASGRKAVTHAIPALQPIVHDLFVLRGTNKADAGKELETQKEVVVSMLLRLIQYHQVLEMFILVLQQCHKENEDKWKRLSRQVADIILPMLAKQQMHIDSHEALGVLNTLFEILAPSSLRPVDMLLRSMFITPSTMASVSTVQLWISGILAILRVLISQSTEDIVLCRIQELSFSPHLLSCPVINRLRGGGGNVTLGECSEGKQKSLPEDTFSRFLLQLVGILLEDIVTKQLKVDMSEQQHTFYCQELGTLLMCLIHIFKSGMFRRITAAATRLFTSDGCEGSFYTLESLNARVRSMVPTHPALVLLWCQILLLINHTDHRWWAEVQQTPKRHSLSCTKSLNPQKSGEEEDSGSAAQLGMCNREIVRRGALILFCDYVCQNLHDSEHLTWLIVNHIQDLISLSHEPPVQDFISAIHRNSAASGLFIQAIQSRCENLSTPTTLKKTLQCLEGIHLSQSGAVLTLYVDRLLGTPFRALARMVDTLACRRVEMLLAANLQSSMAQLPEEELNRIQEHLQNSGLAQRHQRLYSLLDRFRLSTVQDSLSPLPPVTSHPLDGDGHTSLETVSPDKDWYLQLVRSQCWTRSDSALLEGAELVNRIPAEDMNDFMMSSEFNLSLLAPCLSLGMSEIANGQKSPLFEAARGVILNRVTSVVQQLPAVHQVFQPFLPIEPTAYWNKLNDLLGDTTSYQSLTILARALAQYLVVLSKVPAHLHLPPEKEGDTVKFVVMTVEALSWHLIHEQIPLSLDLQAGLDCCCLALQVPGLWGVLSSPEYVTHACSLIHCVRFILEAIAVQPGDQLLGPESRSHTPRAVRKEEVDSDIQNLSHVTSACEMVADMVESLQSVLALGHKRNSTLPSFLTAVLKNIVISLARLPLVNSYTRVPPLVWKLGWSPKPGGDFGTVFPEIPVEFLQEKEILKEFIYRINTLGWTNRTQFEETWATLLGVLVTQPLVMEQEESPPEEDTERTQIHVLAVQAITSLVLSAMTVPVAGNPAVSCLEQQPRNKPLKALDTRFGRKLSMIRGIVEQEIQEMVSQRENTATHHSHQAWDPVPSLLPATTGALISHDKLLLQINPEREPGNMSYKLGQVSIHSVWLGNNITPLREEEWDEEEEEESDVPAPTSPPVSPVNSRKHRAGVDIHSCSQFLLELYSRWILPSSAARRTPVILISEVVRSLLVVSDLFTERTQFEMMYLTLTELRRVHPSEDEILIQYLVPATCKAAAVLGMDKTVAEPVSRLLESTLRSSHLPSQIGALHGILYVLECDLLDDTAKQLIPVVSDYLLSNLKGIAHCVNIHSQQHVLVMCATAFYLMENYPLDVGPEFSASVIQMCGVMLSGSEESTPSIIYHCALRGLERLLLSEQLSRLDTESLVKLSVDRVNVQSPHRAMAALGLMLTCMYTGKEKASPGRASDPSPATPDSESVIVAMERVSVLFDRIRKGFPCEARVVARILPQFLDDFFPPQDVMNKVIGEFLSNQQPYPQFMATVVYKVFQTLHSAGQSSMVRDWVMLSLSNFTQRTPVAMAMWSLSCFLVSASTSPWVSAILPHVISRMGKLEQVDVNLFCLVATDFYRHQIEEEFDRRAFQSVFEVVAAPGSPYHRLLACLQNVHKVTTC

Row | SMILES | viability at 10 µM [1] [%] | also measured
1 | Cc1c(C)n(C)c2ccc(C(=O)NCCN3CCC3)cc12 [Compound 44, N-(2-(Azetidin-1-yl)ethyl)-1,2,3-dimethyl-1H-indole-5-carboxamide] | 75 | remaining activity at 10 µM (mHTT; [2]): 66%
2 | Cc1[nH]c2ccc(C(=O)NCCN3CCCCC3)cc2c1C [Compound 47, 2,3-Dimethyl-N-(2-(piperidin-1-yl)ethyl)-1H-indole-5-carboxamide] | 66 | –
3 | CCc1[nH]c2ccc(C(=O)NCCN3CCCC3)cc2c1C [Compound 11] | 114 | remaining activity at 10 µM (mHTT; read-out: mHTT after treatment): 40%
4 | CCc1[nH]c2ccc(C(=O)NCCN(CC)CC)cc2c1C [Compound 38] | 81 | –
5 | CN(C)CCNC(=O)c1ccc2[nH]c3c(c2c1)CCC3 [Compound 5] | 104 | –
6 | Cc1c(C)n(C)c2ccc(C(=O)NCCN(C(C)C)C(C)C)cc12 [Compound 56] | – | Cell Viability striatal cells 3h heat shocked (STHdh 7/7 striatal cells): 64.1; Cell Viability striatal cells 3h heat shocked [1]: 27; remaining activity at 10 µM (mHTT; read-out: mHTT after treatment): 109%
7 | O=C(NCCN1CCCC1)c1ccc2[nH]c3c(c2c1)CCC3 [Compound 14] | 113 | remaining activity at 10 µM (mHTT; read-out: mHTT after treatment): 41%
8 | O=C(NCCN1CCOCC1)c1ccc2[nH]c3c(c2c1)CCCC3 [Compound 12] | 106 | remaining activity at 10 µM (mHTT; read-out: mHTT after treatment): 40%
9 | CCc1c(C)[nH]c2ccc(C(=O)NCCN3CCOCC3)cc12 [Compound 32] | 98 | –
10 | Cc1c(C)n(C)c2ccc(C(=O)NCCN3CCCCC3)cc12 [Compound 31, 1,2,3-Trimethyl-N-(2-(piperidin-1-yl)ethyl)-1H-indole-5-carboxamide] | 116 | –
11 | CCc1c(C)[nH]c2ccc(C(=O)NCCN(C)C)cc12 [Compound 1] | 111 | remaining activity at 10 µM (mHTT; read-out: mHTT after treatment): 30%
12 | CCc1c(C)[nH]c2ccc(C(=O)NCCN3CCCCC3)cc12 [Compound 18] | 103 | remaining activity at 10 µM (mHTT; read-out: mHTT after treatment): 44%
13 | CCN(CC)CCNC(=O)c1ccc2[nH]c3c(c2c1)CCCC3 [Compound 26] | 82 | remaining activity at 10 µM (mHTT; read-out: mHTT after treatment): 49%
14 | Cc1c(C)n(C)c2ccc(C(=O)NCCN3CCCC3)cc12 [Compound 46, 1,2,3-Trimethyl-N-(2-(pyrrolidin-1-yl)ethyl)-1Hindole-5-carboxamide] | 96 | –
15 | Cc1c(C)n(C)c2ccc(C(=O)NCCN3CCOCC3)cc12 [Compound 40] | 85 | mHTT after treatment (mHTT; 10 µM, 3 h heat shock, 48 hours treatment, in comparison to untreated STHdh 111/111): 62%
16 | CC(C)N(CCNC(=O)c1ccc2[nH]ccc2c1)C(C)C [Compound 72] | – | viability at 10 µM (STHdh 7/7 striatal cells): 45.7%
17 | CN1CCN(CCNC(=O)c2ccc3[nH]c4c(c3c2)CCCC4)CC1 [Compound 36] | 84 | –
18 | O=C(NCCN1CCOCC1)c1ccc2[nH]c3c(c2c1)CCC3 [Compound 8] | 115 | –
19 | Cc1c(C)n(C)c2ccc(C(=O)NCCN3CCN(C)CC3)cc12 [Compound 45] | 81 | remaining activity at 10 µM (mHTT; [2]): 66%
20 | Cc1[nH]c2ccc(C(=O)NCCN3CCCC3)cc2c1C [Compound 29, 2,3-Dimethyl-N-(2-(pyrrolidin-1-yl)ethyl)-1H-indole-5-carboxamide] | 103 | viability at 10 µM (STHdh 7/7 striatal cells): 131%
21 | CCN(CC)CCNC(=O)c1ccc2[nH]c(C)c(C)c2c1 [Compound 21, N-(2-(Diethylamino)ethyl)-2,3-dimethyl-1H-indole-5-carboxamide] | 87 | viability at 10 µM (STHdh 7/7 striatal cells): 82.6%
22 | CCc1c(C)[nH]c2ccc(C(=O)NCCN3CCC3)cc12 [Compound 33] | 79 | –

Row | SMILES | viability at 10 µM [1] [%] | also measured
23 | Cc1c(C)n(C)c2ccc(C(=O)NCCN(C)C)cc12 [Compound 41, N-(2-(Dimethylamino)ethyl)-1,2,3-trimethyl-1H-indole-5-carboxamide] | 75 | –
24 | CCN(CC)CCNC(=O)c1ccc2[nH]c3c(c2c1)CCC3 [Compound 27] | 66 | remaining activity at 10 µM (mHTT; read-out: mHTT after treatment): 50%
25 | C[n+]1ccc(-c2ccccc2)cc1 [MPP+, reference compound] | – | distance moved compared to naive larvae (zebrafish larvae): moved significantly shorter distances than naive larvae
26 | Cc1c(C)n(C)c2ccc(C(=O)NCCN(C(C)C)C(C)C)cc12.Cl [Compound 59] | – | Cell Viability striatal cells 3h heat shocked (STHdh 7/7 striatal cells): 153.6
27 | O=C(NCCN1CCCCC1)c1ccc2[nH]c3c(c2c1)CCCC3 [Compound 16] | 117 | –
28 | CCc1[nH]c2ccc(C(=O)NCCN3CCCCC3)cc2c1C [Compound 23] | 84 | –
29 | Cc1[nH]c2ccc(C(=O)NCCN3CCC3)cc2c1C [Compound 17, N-(2-(Azetidin-1-yl)ethyl)-2,3-dimethyl-1H-indole-5-carboxamide] | 99 | –
30 | CCN(CC)CCNC(=O)c1ccc2c(c1)c(C)c(C)n2C [Compound 19, N-(2-(Diethylamino)ethyl)-1,2,3-dimethyl-1H-indole-5-carboxamide] | 76 | remaining activity at 10 µM (mHTT; [2]): 45%
31 | CC(C)N(CCNC(=O)c1ccc2[nH]ccc2c1)C(C)C [Compound 43] | 32 | –
32 | CN1CCN(CCNC(=O)c2ccc3[nH]c4c(c3c2)CCC4)CC1 [Compound 10] | 96 | remaining activity at 10 µM (mHTT; read-out: mHTT after treatment): 40%
33 | Cc1c(C)n(C)c2ccc(C(=O)NCCN(C(C)C)C(C)C)cc12.Cl [Compound 39] | – | Cell Viability striatal cells 3h heat shocked [1]: 117; remaining activity at 10 µM (mHTT; [2]): 58%
34 | O=C(NCCN1CCC1)c1ccc2[nH]c3c(c2c1)CCC3 [Compound 42] | 88 | –
35 | CCc1[nH]c2ccc(C(=O)NCCN3CCOCC3)cc2c1C [Compound 30] | 55 | –
36 | CCc1c(C)[nH]c2ccc(C(=O)NCCN3CCN(C)CC3)cc12 [Compound 15] | 104 | –
37 | O=C(NCCN1CCCC1)c1ccc2[nH]c3c(c2c1)CCCC3 [Compound 13] | 117 | –
38 | CCc1[nH]c2ccc(C(=O)NCCN(C)C)cc2c1C [Compound 37] | 78 | –
39 | Cc1c(C)n(C)c2ccc(C(=O)NCCN3CCCCC3C)cc12 (centres unmarked) [Compound 48] | 108 | –
40 | CCN(CC)CCNC(=O)c1ccc2[nH]ccc2c1 [Compound 52] | 59 | remaining activity at 10 µM (mHTT; read-out: mHTT after treatment): 73%
41 | CN(C)CCNC(=O)c1ccc2[nH]c3c(c2c1)CCCC3 [Compound 3] | 86 | –
42 | Cc1c(C)n(C)c2ccc(C(=O)NCCN3CCN(C)C(C)C3)cc12 (centres unmarked) [Compound 25, N-(2-(3,4-Dimethylpiperazin-1-yl)ethyl)-1,2,3-trimethyl-1H-indole-5-carboxamide] | 109 | –
43 | CCc1[nH]c2ccc(C(=O)NCCN3CCC3)cc2c1C [Compound 6] | 113 | remaining activity at 10 µM (mHTT; read-out: mHTT after treatment): 37%
